Measurements reported in PubChem BioAssay AID2060887 (Molecular Pharmacology Branch, DTP, NCI, 2025).

Test system: 782815-120-R-J1-PDC complex spheroid viability
Experiment: Anticancer human tumor 782815-120-R-J1-PDC patient-derived colon adenocarcinoma cell line growth inhibition [RAS]
Conditions: for viability, T/C: stronger effect = lower value
How it was run: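 Agents were tested in combination matrices in half-log decrements from a top concentration at or near clinical Cmax (10 microM if undetermined). Targets were multi-cell spheroids of tumour lines plus HUVEC and MSC stromal cells.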
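Further: spheroids exposed to compounds for 7 days before reading.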
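Wherever viability, T/C is given: 100% = DMSO vehicle control viability.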

`CC(C)n1nc(-c2ccc3oc(N)nc3c2)c2c(N)ncnc21` was tested, and the viability, T/C (compound 0.000316 µM) was 98.8% [middle of 4 runs], the viability, T/C (compound 0.001 µM) was 97.7% [middle of 4 runs] and the viability, T/C (compound 0.00316 µM) was 93.8% [middle of 4 runs]. For the same compound, the viability, T/C (compound 0.01 µM) was 90.3% [middle of 4 runs], the viability, T/C (compound 0.0316 µM) was 95.5% [middle of 4 runs] and the viability, T/C (compound 0.1 µM) was 83.7% [middle of 4 runs]. For the same compound, the IC50 (curve of compound) was greater than 100 nM.
Work on `CCc1c2c(nc3ccc(O)cc13)-c1cc3c(c(=O)n1C2)COC(=O)[C@]3(O)CC` + CCn1c(-c2cccnc2C(C)OC)c2c3cc(ccc31)N1CCOC(CC(NC(=O)C(C(C)C)N(C)C(=O)C3(F)CCN(C(=O)C#CC(C)(C)N(C)C)CC3)C(=O)N3CCCC(N3)C(=O)OCC(C)(C)C2)C1 yielded an IC50 (curve of first compound, second compound 0.000949 µM) of 3.67 nM, an IC50 (curve of first compound, second compound 0.003 µM) of 3.95 nM and an IC50 (curve of first compound, second compound 0.00949 µM) of 3.98 nM. The IC50 (curve of first compound, second compound 0.03 µM) was 2.91 nM, the IC50 (curve of first compound, second compound 0.0949 µM) was 3.69 nM and the IC50 (curve of first compound, second compound 0.3 µM) was 3.26 nM. For the same compound, the viability, T/C (second compound 0.000949 µM, first compound 0.000949 µM) was 84%, the viability, T/C (second compound 0.000949 µM, first compound 0.003 µM) was 56.1% and the viability, T/C (second compound 0.000949 µM, first compound 0.00949 µM) was 22.1%. For the same compound, the viability, T/C (second compound 0.000949 µM, first compound 0.03 µM) was 8.78%, the viability, T/C (second compound 0.000949 µM, first compound 0.0949 µM) was 2.94% and the viability, T/C (second compound 0.000949 µM, first compound 0.3 µM) was 1.62%. For the same compound, the viability, T/C (second compound 0.003 µM, first compound 0.000949 µM) was 89.9%, the viability, T/C (second compound 0.003 µM, first compound 0.003 µM) was 59.1% and the viability, T/C (second compound 0.003 µM, first compound 0.00949 µM) was 21.3%. The viability, T/C (second compound 0.003 µM, first compound 0.03 µM) was 9.28%, the viability, T/C (second compound 0.003 µM, first compound 0.0949 µM) was 4.83% and the viability, T/C (second compound 0.003 µM, first compound 0.3 µM) was 1.63%. For the same compound, the viability, T/C (second compound 0.00949 µM, first compound 0.000949 µM) was 86.5%, the viability, T/C (second compound 0.00949 µM, first compound 0.003 µM) was 59.2% and the viability, T/C (second compound 0.00949 µM, first compound 0.00949 µM) was 22.6%. It also gave a viability, T/C (second compound 0.00949 µM, first compound 0.03 µM) of 11.7%, a viability, T/C (second compound 0.00949 µM, first compound 0.0949 µM) of 3.57% and a viability, T/C (second compound 0.00949 µM, first compound 0.3 µM) of 1.64%. For the same compound, the viability, T/C (second compound 0.03 µM, first compound 0.000949 µM) was 91.9%, the viability, T/C (second compound 0.03 µM, first compound 0.003 µM) was 49.3% and the viability, T/C (second compound 0.03 µM, first compound 0.00949 µM) was 19%. It also gave a viability, T/C (second compound 0.03 µM, first compound 0.03 µM) of 10.1%, a viability, T/C (second compound 0.03 µM, first compound 0.0949 µM) of 4.83% and a viability, T/C (second compound 0.03 µM, first compound 0.3 µM) of 1.53%. The viability, T/C (second compound 0.0949 µM, first compound 0.000949 µM) was 82.5%, the viability, T/C (second compound 0.0949 µM, first compound 0.003 µM) was 57% and the viability, T/C (second compound 0.0949 µM, first compound 0.00949 µM) was 18.8%. It also gave a viability, T/C (second compound 0.0949 µM, first compound 0.03 µM) of 8.68%, a viability, T/C (second compound 0.0949 µM, first compound 0.0949 µM) of 5.21% and a viability, T/C (second compound 0.0949 µM, first compound 0.3 µM) of 1.73%. For the same compound, the viability, T/C (second compound 0.3 µM, first compound 0.000949 µM) was 86.1%, the viability, T/C (second compound 0.3 µM, first compound 0.003 µM) was 53% and the viability, T/C (second compound 0.3 µM, first compound 0.00949 µM) was 15.4%. For the same compound, the viability, T/C (second compound 0.3 µM, first compound 0.03 µM) was 8.17%, the viability, T/C (second compound 0.3 µM, first compound 0.0949 µM) was 2.87% and the viability, T/C (second compound 0.3 µM, first compound 0.3 µM) was 1.16%.
`C#Cc1c(F)ccc2cc(O)cc(-c3ncc4c(N5CC6CCC(C5)N6)nc(OCC56CCCN5CC(F)C6)nc4c3F)c12` (stereo not given) was tested, and the viability, T/C (compound 0.0316 µM) was 104% [middle of 8 runs], the viability, T/C (compound 0.1 µM) was 103% [middle of 8 runs] and the viability, T/C (compound 0.316 µM) was 103% [middle of 8 runs]. The viability, T/C (compound 1 µM) was 97.9% [middle of 8 runs], the viability, T/C (compound 3.16 µM) was 101% [middle of 8 runs] and the viability, T/C (compound 10 µM) was 95% [middle of 8 runs]. It also gave an IC50 (compound alone, run of 07/15/2024) greater than 10000 nM.
For `CCn1c(-c2cc(N3CCN(C)CC3)cnc2C(C)OC)c2c3cc(ccc31)-c1csc(n1)CC(NC(=O)C1CC1C)C(=O)N1CCCC(N1)C(=O)OCC(C)(C)C2` (stereo not given), the viability, T/C (compound 0.000949 µM) was 84.7% [middle of 8 runs], the viability, T/C (compound 0.003 µM) was 60.1% [middle of 8 runs] and the viability, T/C (compound 0.00949 µM) was 35.1% [middle of 8 runs]. The viability, T/C (compound 0.03 µM) was 20.7% [middle of 8 runs], the viability, T/C (compound 0.0949 µM) was 16.4% [middle of 8 runs] and the viability, T/C (compound 0.3 µM) was 14.7% [middle of 7 runs]. The IC50 (compound alone, run of 07/09/2024) was 4.66 nM [middle of 8 runs].
`NC1c2ccccc2OC12CCN(c1cnc3c(N4CCCc5ncccc54)n[nH]c3n1)CC2` (stereo not given) + C#Cc1c(F)ccc2cc(O)cc(-c3ncc4c(N5CC6CCC(C5)N6)nc(OCC56CCCN5CC(F)C6)nc4c3F)c12 showed an IC50 (curve of first compound, second compound 0.0316 µM) greater than 10000 nM, an IC50 (curve of first compound, second compound 0.1 µM) greater than 10000 nM and an IC50 (curve of first compound, second compound 0.316 µM) greater than 10000 nM. For the same compound, the IC50 (curve of first compound, second compound 1 µM) was greater than 10000 nM, the IC50 (curve of first compound, second compound 3.16 µM) was greater than 10000 nM and the IC50 (curve of first compound, second compound 10 µM) was greater than 10000 nM. It also gave a viability, T/C (second compound 0.0316 µM, first compound 0.0316 µM) of 110%, a viability, T/C (second compound 0.0316 µM, first compound 0.1 µM) of 104% and a viability, T/C (second compound 0.0316 µM, first compound 0.316 µM) of 111%. The viability, T/C (second compound 0.0316 µM, first compound 1 µM) was 95.3%, the viability, T/C (second compound 0.0316 µM, first compound 3.16 µM) was 99.8% and the viability, T/C (second compound 0.0316 µM, first compound 10 µM) was 84%. The viability, T/C (second compound 0.1 µM, first compound 0.0316 µM) was 103%, the viability, T/C (second compound 0.1 µM, first compound 0.1 µM) was 96% and the viability, T/C (second compound 0.1 µM, first compound 0.316 µM) was 110%. It also gave a viability, T/C (second compound 0.1 µM, first compound 1 µM) of 106%, a viability, T/C (second compound 0.1 µM, first compound 3.16 µM) of 94.4% and a viability, T/C (second compound 0.1 µM, first compound 10 µM) of 76.6%. It also gave a viability, T/C (second compound 0.316 µM, first compound 0.0316 µM) of 99.6%, a viability, T/C (second compound 0.316 µM, first compound 0.1 µM) of 105% and a viability, T/C (second compound 0.316 µM, first compound 0.316 µM) of 103%. The viability, T/C (second compound 0.316 µM, first compound 1 µM) was 106%, the viability, T/C (second compound 0.316 µM, first compound 3.16 µM) was 96.7% and the viability, T/C (second compound 0.316 µM, first compound 10 µM) was 90.4%. It also gave a viability, T/C (second compound 1 µM, first compound 0.0316 µM) of 109%, a viability, T/C (second compound 1 µM, first compound 0.1 µM) of 102% and a viability, T/C (second compound 1 µM, first compound 0.316 µM) of 110%. The viability, T/C (second compound 1 µM, first compound 1 µM) was 106%, the viability, T/C (second compound 1 µM, first compound 3.16 µM) was 105% and the viability, T/C (second compound 1 µM, first compound 10 µM) was 83.7%. For the same compound, the viability, T/C (second compound 3.16 µM, first compound 0.0316 µM) was 102%, the viability, T/C (second compound 3.16 µM, first compound 0.1 µM) was 97.1% and the viability, T/C (second compound 3.16 µM, first compound 0.316 µM) was 102%. For the same compound, the viability, T/C (second compound 3.16 µM, first compound 1 µM) was 98.9%, the viability, T/C (second compound 3.16 µM, first compound 3.16 µM) was 99% and the viability, T/C (second compound 3.16 µM, first compound 10 µM) was 96.7%. For the same compound, the viability, T/C (second compound 10 µM, first compound 0.0316 µM) was 101%, the viability, T/C (second compound 10 µM, first compound 0.1 µM) was 101% and the viability, T/C (second compound 10 µM, first compound 0.316 µM) was 115%. It also gave a viability, T/C (second compound 10 µM, first compound 1 µM) of 100%, a viability, T/C (second compound 10 µM, first compound 3.16 µM) of 94.7% and a viability, T/C (second compound 10 µM, first compound 10 µM) of 80.4%.
